# Laboratory results from patent publication US10681909B2, “Herbicidal triazoles” (FMC Corporation, priority 2014, dated 2020).
# Columns and labels:
# canarygrass = test: Test D preemergence; format: in vivo, Phalaris minor; conditions: for Plant response rating (0 to 100), Canarygrass: 16 g ai/ha, 0 is no effect, 100 is complete control; for Plant response rating: Canarygrass: scale 0 to 100
# Source text: (§1) Seeds of plant species selected from bluegrass (annual bluegrass, Poa annua), blackgrass (Alopecurus myosuroides), canarygrass (Phalaris minor), chickweed (common chickweed, Stellaria media), galium (catchweed bedstraw, Galium aparine), bromegrass, down (downy bromegrass, Bromus tectorum), Russian thistle (Salsola kali), field poppy (Papaver rhoeas), field violet (Viola arvensis), foxtail, green (green foxtail, Setaria viridis), deadnettle (henbit deadnettle, Lamium amplexicaule), ryegrass, Ital. (Italian ryegrass, Lolium multiflorum), kochia (Kochia scoparia), lambsquarters (Chenopodium album), oilseed rape (Brassica napus), pigweed (Amaranthus retroflexus), chamomile (scentless chamomile, Matricaria inodora), speedwell (bird's-eye speedwell, Veronica persica), barley, spring (spring barley, Hordeum vulgare), wheat, spring (spring wheat, Triticum aestivum), buckwheat, wild (wild buckwheat, Polygonum convolvulus), wild mustard (Sinapis arvensis), oat, wild (wild oat, Avena fatua), radish, wild (wild radish, Raphanus raphanistrum), […]), barley, winter (winter barley, Hordeum vulgare), and wheat, winter (winter wheat, Triticum aestivum) were planted into a silt loam soil and treated preemergence with test chemicals formulated in a non-phytotoxic solvent mixture which included a surfactant. At the same time, these species were planted in pots containing Sunshine Redi-Earth® planting medium comprising spaghnum peat moss, vermiculite, starter nutrients and dolomitic limestone and treated with postemergence applications of the test chemicals formulated in the same manner. Plants ranged in height from 2 to 18 cm (1- to 4-leaf stage). Treated plants and controls were maintained in a controlled growth environment for 14 to 21 d after which time all species were compared to controls and visually evaluated. […] A dash (-) response means no test result.
# galium = test: Test C preemergence; format: in vivo, Galium aparine; conditions: for Plant response rating (scale of 0 to 100 where 0 is no effect and 100 is complete control): Galium, preemergence; for Galium plant response rating (0 to 100): Preemergence, visual rating after 13 to 15 d
# Source text: (§2) Seeds of plant species selected from blackgrass (Alopecurus myosuroides), ryegrass, Italian (Italian ryegrass, Lolium multiflorum), wheat (winter wheat, Triticum aestivum), galium (catchweed bedstraw, Galium aparine), corn (Zea mays), crabgrass, large (large crabgrass, Digitaria sanguinalis), foxtail, giant, (giant foxtail, Setaria faberii), johnsongrass (Sorghum halepense), lambsquarters (Chenopodium album), morningglory (Ipomoea coccinea), nutsedge, yellow (yellow nutsedge, Cyperus esculentus), pigweed (Amaranthus retroflexus), ragweed (common ragweed, Ambrosia elatior), soybean (Glycine max), barnyardgrass (Echinochloa crus-galli), oilseed rape (Brassica napus), waterhemp (common waterhemp, Amaranthus rudis), and velvetleaf (Abutilon theophrasti) were planted into a blend of loam soil and sand and treated preemergence with test chemicals formulated in a non-phytotoxic solvent mixture which included a surfactant. At the same time, plants selected from these crop and weed species and also chickweed (common chickweed, Stellaria media), oat, wild (wild oat, Avena fatua), and kochia (Kochia scoparia), were planted in pots containing Sunshine Redi-Earth® planting medium comprising spaghnum peat moss, vermiculite, starter nutrients and dolomitic limestone and treated with postemergence applications of test chemicals formulated in the same manner. Plants ranged in height from 2 to 18 cm (1- to 4-leaf stage) for postemergence treatments. […] A dash (-) response means no test result.
# blackgrass = test: Test C preemergence; format: in vivo, Alopecurus myosuroides; conditions: for Plant response rating (scale of 0 to 100 where 0 is no effect and 100 is complete control): Blackgrass, preemergence; for Blackgrass plant response rating (0 to 100): Preemergence, visual rating after 13 to 15 d
# Source text: as §2
# deadnettle = test: Test D postemergence; format: in vivo, Lamium amplexicaule; conditions: scale 0 to 100
# Source text: as §1
# oilseed rape = test: Test D preemergence; format: in vivo, Brassica napus; conditions: for Plant response rating (0 to 100), Oilseed Rape: 16 g ai/ha, 0 is no effect, 100 is complete control; for Plant response rating: Oilseed Rape: scale 0 to 100
# Source text: as §1
# barley, winter = test: Test D postemergence; format: in vivo, Hordeum vulgare; conditions: scale 0 to 100
# Source text: as §1
# barley, spring = test: Test D postemergence; format: in vivo, Hordeum vulgare; conditions: scale 0 to 100
# Source text: as §1
# ryegrass, Italian = test: Test A postemergence; format: in vivo, Lolium multiflorum; conditions: 0 to 100 scale (0 no effect, 100 complete control), approx. 10 d
# In short: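 Weed and crop species in loam–sand blend sprayed preemergence on soil or postemergence at 2–10 cm, one- to two-leaf stage, with chemicals in surfactant-containing solvent. Injury rated visually after ~10 d in greenhouse versus untreated controls on a 0–100 scale (100 = complete control).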
Structure (SMILES),"Plant response rating (0 to 100), Canarygrass (canarygrass)",Plant response rating: Canarygrass (canarygrass; 31 g ai/ha),Plant response rating: Canarygrass (canarygrass; 62 g ai/ha),Plant response rating: Canarygrass (canarygrass; 125 g ai/ha),Plant response rating (scale of 0 to 100 where 0 is no effect and 100 is complete control) (galium; 125 g ai/ha),Plant response rating (scale of 0 to 100 where 0 is no effect and 100 is complete control) (galium; 250 g ai/ha),Galium plant response rating (0 to 100) (galium; 31 g ai/ha),Galium plant response rating (0 to 100) (galium; 62 g ai/ha),Plant response rating (scale of 0 to 100 where 0 is no effect and 100 is complete control) (blackgrass; 125 g ai/ha),Plant response rating (scale of 0 to 100 where 0 is no effect and 100 is complete control) (blackgrass; 250 g ai/ha),Blackgrass plant response rating (0 to 100) (blackgrass; 31 g ai/ha),Blackgrass plant response rating (0 to 100) (blackgrass; 62 g ai/ha),Plant response rating: Deadnettle (deadnettle; 16 g ai/ha),Plant response rating: Deadnettle (deadnettle; 31 g ai/ha),Plant response rating: Deadnettle (deadnettle; 62 g ai/ha),Plant response rating: Deadnettle (deadnettle; 125 g ai/ha),"Plant response rating (0 to 100), Oilseed Rape (oilseed rape)",Plant response rating: Oilseed Rape (oilseed rape; 62 g ai/ha),Plant response rating: Oilseed Rape (oilseed rape; 125 g ai/ha),"Plant response rating: Barley, Winter (barley, winter; 16 g ai/ha)",further results
FC(F)(F)COc1nc(-c2ccc(Cl)cc2)nn1Cc1ccnc(C(F)(F)F)c1 [Compound 31],50,85,90,100,30,35,5,30,90,95,80,70,75,75,80,95,10,35,35,25,"Plant response rating: Barley, Winter (barley, winter; 31 g ai/ha): 35; Plant response rating: Barley, Winter (barley, winter; 62 g ai/ha): 40; Plant response rating: Barley, Winter (barley, winter; 125 g ai/ha): 50; Plant response rating: Barley, Spring (barley, spring; 16 g ai/ha): 35; Plant response rating: Barley, Spring (barley, spring; 31 g ai/ha): 45; Plant response rating: Barley, Spring (barley, spring; 62 g ai/ha): 45; Plant response rating: Barley, Spring (barley, spring; 125 g ai/ha): 50; Plant response rating, Ryegrass, Italian (ryegrass, Italian; 125 g ai/ha): 50; Plant response rating, Ryegrass, Italian (ryegrass, Italian; 500 g ai/ha): 80"
"CCOc1nc(-c2ccc(C(F)(F)F)cc2)nn1Cc1ccnc(C(F)(F)F)c1 [Compound 35, 4-[[5-ethoxy-3-[4-(trifluoromethyl)phenyl]-1H-1,2,4-triazole-1-yl]methyl]-2-(trifluoromethyl)pyridine]",45,95,100,100,90,90,50,80,90,90,90,85,55,65,75,90,25,40,100,25,"Plant response rating: Barley, Winter (barley, winter; 31 g ai/ha): 40; Plant response rating: Barley, Winter (barley, winter; 62 g ai/ha): 40; Plant response rating: Barley, Winter (barley, winter; 125 g ai/ha): 50; Plant response rating: Barley, Spring (barley, spring; 16 g ai/ha): 30; Plant response rating: Barley, Spring (barley, spring; 31 g ai/ha): 40; Plant response rating: Barley, Spring (barley, spring; 62 g ai/ha): 40; Plant response rating: Barley, Spring (barley, spring; 125 g ai/ha): 50; Plant response rating, Ryegrass, Italian (ryegrass, Italian; 31 g ai/ha): 30; Plant response rating, Ryegrass, Italian (ryegrass, Italian; 125 g ai/ha): 60"
